# Target: T1, OLIG2 dimerization (Homo sapiens, UniProt Q13516)
# T1 construct: expressed in transfected cells; host or cells: HEK293
# T1 sequence (Q13516 1-323): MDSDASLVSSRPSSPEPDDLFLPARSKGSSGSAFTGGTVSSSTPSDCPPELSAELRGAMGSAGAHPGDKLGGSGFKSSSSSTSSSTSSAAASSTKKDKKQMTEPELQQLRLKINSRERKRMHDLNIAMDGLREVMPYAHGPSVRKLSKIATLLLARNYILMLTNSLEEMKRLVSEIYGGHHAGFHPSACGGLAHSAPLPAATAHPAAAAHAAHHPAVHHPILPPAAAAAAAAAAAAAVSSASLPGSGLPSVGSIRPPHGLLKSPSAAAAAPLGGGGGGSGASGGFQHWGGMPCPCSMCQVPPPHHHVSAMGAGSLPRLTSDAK
# Experiment: FCCS of OLIG2 dimerization in live HEK293 cells co-transfected with OLIG2-eGFP and OLIG2-Tomato
# Assay type: cell-based
# Protocol: HEK293 cells were maintained in a humidified atmosphere containing 5 % CO2 at 37 °C in Dulbecco’s Modified Eagle Medium supplemented with 10 % fetal bovine serum (FBS) and antibiotics (100 U/mL penicillin and 100 μg/mL streptomycin). One day before the transfection, HEK293 cells were split into Lab-Tek 8-well chambered Coverglass (Thermo Fisher Scientific). HEK293 cells on and 8-well chamber were transfected with plasmid DNA (OLIG2-eGFP and OLIG2-Tomato; or with eGFP and Tomato as negative control) using Lipofectamine 2000 (Thermo Fisher Scientific). After the transfection, HEK293 cells were cultured for 24 h at 37 °C. […]
# CLSM imaging and FCCS measurements were performed using an LSM880 microscope system (Carl Zeiss, Germany) equipped with an Ar-ion laser with three lines: 458 nm, 488 nm and 514 nm, 543 nm He-Ne laser, and a water immersion objective lens (C-Apochromat, 40×, 1.2 N.A., Corr, Carl Zeiss), and a gallium arsenide phosphide (GaAsP) spectral array detector and photomultiplier tube (PMT) spectral array detector. eGFP and Tomato were excited using 488 nm laser and 543 nm laser, respectively. […] The emitted fluorescence was split by a diffraction grating and detected using a GaAsP detector (wavelength range 496–534 nm for eGFP) and a PMT detector (wavelength range 580–758 nm for Tomato). […]
# Data acquired by FCCS was analyzed using the ZEN software (Carl Zeiss). […]
smiles,measurement,setting,value
Cc1cc(NCCCN(C)C)nc(NC(=O)Nc2ccc(Cl)c(Cl)c2)n1 [CT-179],relative cross-correlation amplitude (RCA),1 μM for one hour,significantly decreased
same,"allosteric factor, nallo",best fit of RCA dose-response curve,−0.66

# — PMC10275055, “Preventing recurrence in Sonic Hedgehog Subgroup Medulloblastoma using the OLIG2 inhibitor CT-179” (Research Square, 2023)
